Laboratory results reported in paper PMC12655527, “An Investigational Study on the Role of ADME Agents’ Genetic Variation on DD217 Pharmacokinetics and Safety Profile” (Pharmaceuticals, 2025).

Tested on: patients undergoing knee replacement surgery
Assay: Bleeding events during 14-day therapy, phase II trial
Type: in vivo, human
Conditions: for Bleeding, n (safety outcomes): 14 days
Source text: The design, eligibility criteria, and outcomes of the phase II clinical trial evaluating the safety and tolerability of DD217 (NCT05189002, ClinicalTrials.gov) have been described previously. Briefly, this was a multicenter, double-blind, randomized, prospective phase II study designed to determine the optimal dosing regimen and to assess the safety and efficacy of DD217 for the prevention of venous thromboembolism (VTE) in patients undergoing knee replacement surgery. Patients were randomized into one of three groups: two groups received oral DD217 at doses of 40 mg or 60 mg once daily, starting on the morning of the first postoperative day, and one group received the active comparator, dalteparin sodium. The treatment duration was 14 days.
In total, seven cases of DVT/PE were documented during the trial: four in the DD217 40 mg/day group, one in the DD217 60 mg/day group, and two in the dalteparin sodium group. In addition, two bleeding events were recorded: one clinically relevant non-major bleed in the DD217 60 mg/day group and one clinically non-relevant minor bleed in the dalteparin sodium group.

CC(=N)N(C)c1ccc(C(=O)Nc2ccc(C)cc2C(=O)Nc2ccc(Cl)cn2)cc1.Cl [DD217, N-(5-chloropyridin-2-yl)-5-methyl-2-[4-(N-methylacetimidamido)benzamido]benzamide hydrochloride]
Bleeding, n (safety outcomes) (DD217 40 mg/day oral, of 16 patients): 0 n | bleeding events (DD217 60 mg/day group, clinically relevant non-major bleed): one | Bleeding, n (safety outcomes) (DD217 60 mg/day oral, of 18 patients): 1 n
